The results in this text go back to patent publication US12559461B2, “Antibiotic adjuvant compounds” (UNIVERSITY OF NOTRE DAME DU LAC, priority 2020, dated 2026).

Read-outs that look alike come from different tables or passages of the source.

In assay [1] the test system is AB5075. Kind of assay: Broth microdilution clarithromycin (CLR) potentiation and dose-response of adjuvant. Type of assay: cell-based, Acinetobacter baumannii. On the procedure:
(§1) Bacterial Strains and Antimicrobial Agents. Acinetobacter baumannii clinical isolate 5075 was obtained from Dr. Colin Manoil at the University of Washington. Colonies were grown on lysogeny broth (LB) agar. Cation-adjusted Mueller-Hinton Broth (CAMHB) (catalog number 212322) were purchased from BD Diagnostics. LB broth was purchased from Fisher Scientific (catalog number BP9722-2). […] Colistin sulfate salt (catalog number C4461) was purchased from Sigma Aldrich. All assays were completed in duplicate and repeated at least two separate times. All compounds were dissolved as their HCl salts in molecular biology grade DMSO as 10 or 100 mM stock solutions and stored at −20° C. Colistin was dissolved in sterile water while clarithromycin was dissolved in molecular biology grade DMSO.
Broth microdilution method for antibiotic potentiation. Day cultures (6 h) of bacteria in CAMHB were subcultured to 5×10^5 CFU/mL in CAMHB. Aliquots (4 mL) were placed in culture tubes and dosed with compound from 10 mM stock samples to give the desired concentration of the compound to be tested against the particular bacterial strain; this insured non-toxic DMSO concentrations ≤0.3% in each well. 1 mL of the resulting solution was placed in a separate culture and dosed with antibiotic at the highest concentration to be tested. Bacteria treated with antibiotic alone served as the control. Row one of a 96-well plate was filled with 200 μL of the antibiotic/2-AI solution, and rows 2-12 were filled with 100 μL each of the remaining 4 mL of bacterial subculture containing adjuvant at the desired concentration, except for the control lane which contained only bacterial subculture. Row one was then mixed five times, and 100 μL was transferred to row two, which was then mixed five times before being transferred to row three. This process was repeated until all rows had been mixed, except for row twelve which would have only 2-AI to serve as a control to monitor potential toxicity. The 96-well plate was then covered in Glad Press n'Seal and incubated under stationary conditions at 37° C. for 16 h. MIC values were determined as the lowest concentration at which no bacterial growth was observed, and fold reductions were determined by comparison to antibiotic control lane.
Dose-response of Adjuvant Assay. The procedure for ‘broth microdilution method for antibiotic potentiation’ was followed using 4 mL aliquots of adjuvant at various concentrations: 0, 5, 7.5, 10, 15, 20, 25, and 30 μM.

Assay [2] has as its system AB5075. Kind of assay: Broth microdilution MIC of compound alone (standalone toxicity). The format is cell-based, Acinetobacter baumannii. On the procedure: as §1
Broth microdilution method for MIC determination. Day cultures (6 h) of each bacterial strain in cation adjusted Mueller Hinton II broth (CAMHB, Fisher Scientific U.S.) were subcultured to 5×10^5 CFU/mL in CAMHB. Aliquots (1 mL) were placed in culture tubes and compound was added from 10 mM stock samples in DMSO, such that compound concentration equaled highest concentration tested (200 μM). Samples were then aliquoted (200 μL) into the first wells of a 96-well plate, with all remaining wells being filled with 100 μL of initial bacterial subculture. Row one wells were mixed five times, before 100 μL was transferred to row two. Row two was then mixed five times, and 100 μL was transferred to row three. This process was repeated until the final row had been mixed; this served to serially dilute the compound. Plates were then covered with GLAD Press n'Seal and incubated under stationary conditions at 37° C. for 16 h. MIC values were then recorded as the lowest concentration at which no bacterial growth was observed.
On the technique in general: Dilution methods test growth across graded concentrations, often in twofold steps.

Regarding `Cl.Nc1nc(-c2ccc(NC(=O)c3ccc(C(F)(F)F)c(Cl)c3)cc2F)c[nH]1` [Compound 17a, N-(4-(2-amino-1H-imidazol-4-yl)-3-fluorophenyl)-3-chloro-4-(trifluoromethyl)benzamide hydrochloride], the “CLR MIC” value turned out to be 16 µg/mL in the assay with AB5075 [1] (compound tested at 7.5 μM), 8 µg/mL in the assay on AB5075 [1] (compound tested at 10 μM) and 0.25 µg/mL in the assay on AB5075 [1] (compound tested at 15 μM). Further, the “Fold Reduction of CLR MIC” value came out at 4 fold with AB5075 [1] (compound tested at 10 μM) and 128 fold with AB5075 [1] (compound tested at 15 μM). Further, in the assay with AB5075 [2] (Acinetobacter baumannii), the MIC (usually the lowest concentration that inhibits growth of the organism) worked out at 50 µM.

In the case of `Cl.Nc1nc(-c2ccc(NC(=O)c3cc(Cl)cc(Cl)c3)c(F)c2)c[nH]1` [Compound 10c, N-(4-(2-amino-1H-imidazol-4-yl)-2-fluorophenyl)-3,5-dichlorobenzamide hydrochloride], in the assay with AB5075 [1] (compound tested at 30 μM), the “CLR MIC” value is 8 µg/mL. In addition, in the assay with AB5075 [2] (Acinetobacter baumannii), the MIC was > 200 µM.

Regarding `Cl.Nc1nc(-c2ccc(NC(=O)c3cc(Cl)cc(Cl)c3)c(Cl)c2)c[nH]1` [Compound 10b, N-(4-(2-amino-1H-imidazol-4-yl)-2-chlorophenyl)-3,5-dichlorobenzamide hydrochloride], the “CLR MIC” value in the assay with AB5075 [1] (compound tested at 30 μM) amounted to 16 µg/mL. Also, the MIC in the assay with AB5075 [2] (Acinetobacter baumannii) is > 200 µM.

With `Cl.Nc1nc(-c2ccc(NC(=O)c3ccc(F)cc3)cc2)c[nH]1` [Compound 4j, N-(4-(2-amino-1H-imidazol-4-yl)phenyl)-4-fluorobenzamide hydrochloride], the “CLR MIC” value with AB5075 [1] (compound tested at 30 μM) was 8 µg/mL. Moreover, the MIC in the assay on AB5075 [2] (Acinetobacter baumannii) is > 200 µM.

Regarding `Cl.Nc1nc(-c2ccc(NC(=O)c3ccc(Cl)c(C(F)(F)F)c3)cc2F)c[nH]1` [Compound 17b, N-(4-(2-amino-1H-imidazol-4-yl)-3-fluorophenyl)-4-chloro-3-(trifluoromethyl)benzamide hydrochloride], the “CLR MIC” value turned out to be 8 µg/mL in the assay with AB5075 [1] (compound tested at 7.5 μM), 2 µg/mL with AB5075 [1] (compound tested at 10 μM) and 0.25 µg/mL with AB5075 [1] (compound tested at 15 μM). In addition, the “Fold Reduction of CLR MIC” value with AB5075 [1] (compound tested at 7.5 μM) is reported as 4 fold; with AB5075 [1] (compound tested at 10 μM) it was 16 fold; in the assay with AB5075 [1] (compound tested at 15 μM), 128 fold. Moreover, the MIC with AB5075 [2] (Acinetobacter baumannii) was found to be 50 µM.

Take `Cc1cc(C)cc(C(=O)Nc2ccc(-c3c[nH]c(N)n3)cc2)c1.Cl` [Compound 4m, N-(4-(2-amino-1H-imidazol-4-yl)phenyl)-3,5-dimethylbenzamide hydrochloride]: the “CLR MIC” value with AB5075 [1] (compound tested at 30 μM) was 2 µg/mL. In addition, the minimal inhibitory concentration (MIC) in the assay on AB5075 [2] (Acinetobacter baumannii) is > 200 µM.

Turning to `Cl.Nc1nc(-c2ccc(NC(=O)c3cccc(Br)c3)cc2)c[nH]1` [Compound 4c], in the assay with AB5075 [1] (compound tested at 30 μM), the “CLR MIC” value turned out to be 32 µg/mL. In addition, in the assay on AB5075 [2], the minimal inhibitory concentration (MIC) is recorded as >200 µM.

As for `Cl.Nc1nc(-c2ccc(NC(=O)c3cccc(F)c3)cc2)c[nH]1` [Compound 4e], the “CLR MIC” value with AB5075 [1] (compound tested at 30 μM) was determined as 16 µg/mL. For the same compound, the minimal inhibitory concentration (MIC) in the assay with AB5075 [2] is recorded as >200 µM.

On to `Cl.Nc1nc(-c2ccc(NC(=O)c3ccc(Cl)cc3Cl)cc2)c[nH]1` [Compound 4t], for which, in the assay with AB5075 [1] (compound tested at 30 μM), the “CLR MIC” value is 4 µg/mL and the “Fold Reduction of CLR MIC” value is “eight-fold”. Also, in the assay with AB5075 [2], the MIC is >200 µM.

For `Cc1cc(NC(=O)c2cc(Cl)cc(Cl)c2)ccc1-c1c[nH]c(N)n1.Cl` [Compound 6b, N-(4-(2-amino-1H-imidazol-4-yl)-3-methylphenyl)-3,5-dichlorobenzamide hydrochloride], the “CLR MIC” value in the assay on AB5075 [1] (compound tested at 10 μM) turned out to be 8 µg/mL; in the assay on AB5075 [1] (compound tested at 20 μM), 0.5 µg/mL; in the assay with AB5075 [1] (compound tested at 30 μM), 0.5 µg/mL. The “Fold Reduction of CLR MIC” value with AB5075 [1] (compound tested at 20 μM) and with AB5075 [1] (compound tested at 30 μM) was 64 fold throughout. Also, the minimal inhibitory concentration (MIC) in the assay on AB5075 [2] (Acinetobacter baumannii) was > 200 µM.

In the case of `Cl.Nc1nc(-c2ccc(NC(=O)c3cc(Cl)c(Br)c(Cl)c3)cc2)c[nH]1` [Compound 4y, N-(4-(2-amino-1H-imidazol-4-yl)phenyl)-4-bromo-3,5-dichlorobenzamide hydrochloride], the “CLR MIC” value in the assay with AB5075 [1] (compound tested at 7.5 μM) is 8 µg/mL; in the assay with AB5075 [1] (compound tested at 10 μM), 0.25 µg/mL; in the assay on AB5075 [1] (compound tested at 20 μM), 0.25 µg/mL. Moreover, in the assay on AB5075 [1] (compound tested at 10 μM), the “Fold Reduction of CLR MIC” value is 128 fold. Further, the minimum inhibitory concentration (MIC) in the assay on AB5075 [2] (Acinetobacter baumannii) was found to be 200 µM.

As for `Cl.Nc1nc(-c2ccc(NC(=O)c3cc(I)c(I)c(I)c3)cc2)c[nH]1` [Compound 4w], in the assay with AB5075 [1] (compound tested at 30 μM), the “CLR MIC” value stood at 32 µg/mL. The MIC with AB5075 [2] is on record as >200 µM.

Regarding `Cl.Nc1nc(-c2ccc(NC(=O)c3ccc(I)cc3)cc2)c[nH]1` [Compound 4g], the “CLR MIC” value in the assay on AB5075 [1] (compound tested at 30 μM) worked out at 16 µg/mL. Besides, the MIC in the assay with AB5075 [2] is on record as >200 µM.

For `Cl.Nc1nc(-c2ccc(NC(=O)c3ccc(C(F)(F)F)cc3)cc2)c[nH]1` [Compound 4f], the “CLR MIC” value in the assay on AB5075 [1] (compound tested at 30 μM) was 32 µg/mL. For the same compound, the MIC with AB5075 [2] is >200 µM.

`Cl.Nc1nc(-c2ccc(NC(=O)c3ccc(Br)cc3F)cc2)c[nH]1` [Compound 4u]: the “CLR MIC” value with AB5075 [1] (compound tested at 10 μM) was 32 µg/mL; in the assay on AB5075 [1] (compound tested at 20 μM) it was 16 µg/mL; in the assay on AB5075 [1] (compound tested at 30 μM), 2 µg/mL. Also, the MIC in the assay with AB5075 [2] is >200 µM.

Take `Cl.Nc1nc(-c2ccc(NC(=O)c3c(F)c(F)c(F)c(F)c3F)cc2)c[nH]1` [Compound 4x, N-(4-(2-amino-1H-imidazol-4-yl)phenyl)-2,3,4,5,6-pentafluorobenzamide hydrochloride]: the “CLR MIC” value in the assay with AB5075 [1] (compound tested at 30 μM) came to 4 µg/mL. The MIC in the assay on AB5075 [2] (Acinetobacter baumannii) is > 200 µM.

In the case of `COc1cc(-c2c[nH]c(N)n2)ccc1NC(=O)c1cc(Cl)cc(Cl)c1.Cl` [Compound 6a, N-(4-(2-amino-1H-imidazol-4-yl)-2-methoxyphenyl)-3,5-dichlorobenzamide hydrochloride], the entries for the “CLR MIC” value in the assay with AB5075 [1] (compound tested at 10 μM), in the assay on AB5075 [1] (compound tested at 20 μM) and with AB5075 [1] (compound tested at 30 μM) were 16 µg/mL, 4 µg/mL and 0.5 µg/mL, respectively. In addition, the “Fold Reduction of CLR MIC” value worked out at 8 fold in the assay with AB5075 [1] (compound tested at 20 μM) and 64 fold in the assay with AB5075 [1] (compound tested at 30 μM). For the same compound, the MIC in the assay with AB5075 [2] (Acinetobacter baumannii) was 100 µM.
